The structures appear in SMILES notation. In brackets after ≈: the same amount, converted by molar mass. Where a SMILES comes first, the peptide text is derived from it. Bridges are numbered along the chain shown (N, C = ends). [ ]: non-standard residue; d: D form. The star is where a group is joined. dDab = NCC[C@@H](N)C(=O)O; Octanoyl = CCCCCCCC(=O)*; Dab = NCC[C@H](N)C(=O)O

One data set deals with P. aeruginosa ATTC 27853. Description: microbe, parasite or virus in culture. To be noted: for MIC P. aeruginosa ATTC 27853: ATTC 27853, 18 h. The method, boiled down: (§1)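 Growth inhibition is assessed by broth microdilution, with the MIC expressed in mg/L; polymyxin B, colistin, vancomycin and gentamicin act as positive controls.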
For a further data set, the system named is E. coli ATCC 25922. In words: microbe, parasite or virus in culture. Particulars: ATCC 25922, 18 h. The method, boiled down: as §1
The subject of another data set is S. aureus ATCC 25923. In words: microbe, parasite or virus in culture. Particulars: for MIC S. aureus ATCC 25923: ATCC 25923, 18 h. The method, boiled down:
as §1

For a further data set, the system named is A. baumannii ATCC 19606. In words: microbe, parasite or virus in culture. Particulars: for MIC A. baumannii ATCC 19606: ATCC 19606, 18 h. The method, boiled down:
as §1

The test system of data set [1] is K. pneumoniae ATCC 700603. In words: microbe, parasite or virus in culture. To be noted: for MIC K. pneumoniae ATCC 700603: ATCC 700603, 18 h. In a few lines: as §1
The next data set relates to K. pneumoniae ATCC 13833. Description: microbe, parasite or virus in culture. Particulars: for MIC K. pneumoniae ATCC 13833: ATCC 13833, 18 h. The method, boiled down: as §1
Another data set concerns K. pneumoniae BAA 2146. In words: microbe, parasite or virus in culture. To be noted: for MIC K. pneumoniae BAA 2146: BAA 2146, 18 h. In a few lines: as §1
Data set [2] deals with P. aeruginosa FADDI PA070. Description: microbe, parasite or virus in culture. To be noted: for MIC P. aeruginosa FADDI PA070: FADDI PA070, 18 h. The method, boiled down:
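Compounds are diluted in broth, the strain is added, and the lowest concentration that inhibits growth is taken as the MIC (mg/L).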

Another data set can be described thus: in vitro. Particulars: human. The method, boiled down:
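HK-2 cells seeded 2000 cells/well in DMEM/F12 with 10% FBS, grown 24 h, then exposed to compounds (300 µM to 2.3 µM, 2-fold series; colistin/polymyxin B 1 mM to 7.8 µM) for 24 h at 37 °C. LDH in medium read at 450 nm after 30 min; cytotoxicity % relative to 1% Triton X-100 and untreated cells.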

For the compound `CCCCCCCC(=O)N[C@@H](CC(N)=O)C(=O)N[C@H](CCN)C(=O)N[C@H]1CCNC(=O)[C@H]([C@@H](C)O)NC(=O)[C@H](CCN)NC(=O)[C@H](CCN)NC(=O)[C@H](CC(C)C)NC(=O)[C@@H](Cc2ccccc2)NC(=O)[C@H](CCN)NC1=O` [Compound 28] (Octanoyl-N[dDab][Dab][Dab][dF]L[Dab][Dab]T; lactam 3-C), in the data set on P. aeruginosa ATTC 27853, the “MIC P. aeruginosa ATTC 27853” value was found to be 4 µg/mL (≈ 3.63 µM). The “MIC E. coli ATCC 25922” value against E. coli ATCC 25922 came out at 32 µg/mL (≈ 29 µM). For the same compound, in the data set with S. aureus ATCC 25923, the “MIC S. aureus ATCC 25923” value is over 32 µg/mL. Moreover, the “MIC A. baumannii ATCC 19606” value in the data set on A. baumannii ATCC 19606 is over 32 µg/mL. Besides, the “MIC K. pneumoniae ATCC 700603” value in data set [1] is over 32 µg/mL. Besides, in the data set on K. pneumoniae ATCC 13833, the “MIC K. pneumoniae ATCC 13833” value is over 32 µg/mL. The “MIC K. pneumoniae BAA 2146” value in the data set on K. pneumoniae BAA 2146 was over 32 µg/mL. For the same compound, in data set [2], the “MIC P. aeruginosa FADDI PA070” value was determined as 8 µg/mL (≈ 7.26 µM). The compound also displayed a CC50 at 24 h in the data set “in vitro” of over 300 µM.

Take `CCCCCCCC(=O)N[C@@H](Cc1ccc(O)cc1)C(=O)N[C@H](CCN)C(=O)N[C@H]1CCNC(=O)[C@H]([C@@H](C)O)NC(=O)[C@H](CCN)NC(=O)[C@H](CCN)NC(=O)[C@H](CC(C)C)NC(=O)[C@@H](Cc2ccccc2)NC(=O)[C@H](CCN)NC1=O` [Compound 29] (Octanoyl-Y[dDab][Dab][Dab][dF]L[Dab][Dab]T; lactam 3-C): the “MIC P. aeruginosa ATTC 27853” value in the data set with P. aeruginosa ATTC 27853 was 4 µg/mL (≈ 3.47 µM). For the same compound, the “MIC E. coli ATCC 25922” value against E. coli ATCC 25922 is 16 µg/mL (≈ 13.9 µM). Also, the “MIC S. aureus ATCC 25923” value with S. aureus ATCC 25923 is over 32 µg/mL. Besides, in the data set on A. baumannii ATCC 19606, the “MIC A. baumannii ATCC 19606” value is over 32 µg/mL. In [1], the “MIC K. pneumoniae ATCC 700603” value turned out to be 16 µg/mL (≈ 13.9 µM). Moreover, the “MIC K. pneumoniae ATCC 13833” value in the data set with K. pneumoniae ATCC 13833 was over 32 µg/mL. The “MIC K. pneumoniae BAA 2146” value in the data set with K. pneumoniae BAA 2146 was over 32 µg/mL. The “MIC P. aeruginosa FADDI PA070” value in data set [2] came to 8 µg/mL (≈ 6.95 µM). The compound also displayed a CC50 at 24 h in “in vitro” of over 300 µM.

On to `CCCCCCCC(=O)N[C@@H](CO)C(=O)N[C@H](CCN)C(=O)N[C@H]1CCNC(=O)[C@H]([C@@H](C)O)NC(=O)[C@H](CCN)NC(=O)[C@H](CCN)NC(=O)[C@H](CC(C)C)NC(=O)[C@@H](Cc2ccccc2)NC(=O)[C@H](CCN)NC1=O` [Compound 30] (Octanoyl-S[dDab][Dab][Dab][dF]L[Dab][Dab]T; lactam 3-C), for which the “MIC P. aeruginosa ATTC 27853” value against P. aeruginosa ATTC 27853 was 1 µg/mL (≈ 0.93 µM). Besides, the “MIC E. coli ATCC 25922” value in the data set with E. coli ATCC 25922 is 8 µg/mL (≈ 7.44 µM). Moreover, the “MIC S. aureus ATCC 25923” value against S. aureus ATCC 25923 was over 32 µg/mL. In addition, the “MIC A. baumannii ATCC 19606” value against A. baumannii ATCC 19606 is over 32 µg/mL. The “MIC K. pneumoniae ATCC 700603” value in data set [1] came out at 4 µg/mL (≈ 3.72 µM). In the data set on K. pneumoniae ATCC 13833, the “MIC K. pneumoniae ATCC 13833” value is over 32 µg/mL. For the same compound, the “MIC K. pneumoniae BAA 2146” value with K. pneumoniae BAA 2146 was 8 µg/mL (≈ 7.44 µM). The “MIC P. aeruginosa FADDI PA070” value in [2] amounted to 16 µg/mL (≈ 14.9 µM). In addition, the CC50 at 24 h in the data set “in vitro” was over 300 µM.

Regarding `CNC(C)C1CCC(N)C(OC2C(N)CC(N)C(OC3OCC(C)(O)C(NC)C3O)C2O)O1` (stereo not shown) [Gent, gentamicin, reference compound], the MIC is over 32 µg/mL with P. aeruginosa ATTC 27853 (Pseudomonas aeruginosa, ATTC27853, 18 h, read-out: MIC P. aeruginosa ATTC 27853); 0.5 µg/mL (≈ 1.05 µM) in the data set on S. aureus ATCC 25923 (Staphylococcus aureus, ATCC25923, 18 h, read-out: MIC S. aureus ATCC 25923); 32 µg/mL (≈ 67 µM) in the data set on A. baumannii ATCC 19606 (Acinetobacter baumannii, ATCC19606, 18 h, read-out: MIC A. baumannii ATCC 19606); 8 µg/mL (≈ 16.8 µM) in data set [1] (Klebsiella pneumoniae, ATCC700603, 18 h, read-out: MIC K. pneumoniae ATCC 700603); 0.25 µg/mL (≈ 0.523 µM) in the data set with K. pneumoniae ATCC 13833 (Klebsiella pneumoniae, ATCC13833, 18 h, read-out: MIC K. pneumoniae ATCC 13833); over 32 µg/mL with K. pneumoniae BAA 2146 (Klebsiella pneumoniae, BAA2146, 18 h, read-out: MIC K. pneumoniae BAA 2146). Further, the MIC in data set [2] (Pseudomonas aeruginosa, FADDIPA070, 18 h, read-out: MIC P. aeruginosa FADDI PA070) came out at 32 µg/mL (≈ 67 µM). For the same compound, in the data set “in vitro”, the CC50 at 24 h is over 300 µM.

`CC(C)C[C@@H]1NC(=O)[C@@H](Cc2ccccc2)NC(=O)[C@H](CCN)NC(=O)[C@@H](NC(=O)[C@H](CCN)NC(=O)[C@@H](N)[C@@H](C)O)CCNC(=O)[C@H]([C@@H](C)O)NC(=O)[C@H](CCN)NC(=O)[C@H](CCN)NC1=O` [PMBN, polymyxin B nonapeptide, reference compound] (H-T[Dab][Dab][Dab][dF]L[Dab][Dab]T; lactam 3-C (inferred)): the “MIC P. aeruginosa ATTC 27853” value with P. aeruginosa ATTC 27853 came to 2 µg/mL (≈ 2.08 µM). The “MIC E. coli ATCC 25922” value against E. coli ATCC 25922 is over 32 µg/mL. In the data set on S. aureus ATCC 25923, the “MIC S. aureus ATCC 25923” value is over 32 µg/mL. Further, the “MIC A. baumannii ATCC 19606” value in the data set with A. baumannii ATCC 19606 is over 32 µg/mL. In [1], the “MIC K. pneumoniae ATCC 700603” value is over 32 µg/mL. Besides, the “MIC K. pneumoniae ATCC 13833” value in the data set on K. pneumoniae ATCC 13833 is over 32 µg/mL. Further, the “MIC K. pneumoniae BAA 2146” value with K. pneumoniae BAA 2146 was over 32 µg/mL. In “in vitro”, this compound showed a CC50 at 24 h of over 300 µM.

For the origin of these results see PMC6384738, “Structure-Function Studies of Polymyxin B Lipononapeptides” (Molecules, 2019).
